Measured values published in the supplement of paper PMC10627819.

Columns and labels:
S. pneumoniae D39V [1] = experiment: Bliss interaction score (quartile over a dose matrix) (fitness difference); higher = more antagonism (negative = synergy)
How it was run: (§1)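 Growth in each well was taken as OD595 at entry into stationary phase. Dividing by the plate's robust no-drug mean and capping at 1 gave fitness, and single-drug fitness was inferred from the combination data. The Bliss score, observed minus product-expected fitness, is summarised by quartiles over technical, biological and donor/recipient replicates.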

B. subtilis 168 [2] = experiment: as above
How it was run: as §1

S. aureus Newman [3] = experiment: as above
How it was run: as §1

S. aureus DSM 20231 = experiment: as above
How it was run: as §1

S. pneumoniae D39V [4] = experiment: fitness (endpoint OD595 vs no drug) (fraction); higher = more growth
How it was run: (§2)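 In 384-well plates at 37 °C, cultures began at OD595 0.01 in 30 µl, with 55 µl used for S. pneumoniae. OD595 readings every 30 min for 14 h were corrected by the first reading. Fitness divides the stationary-phase transition optical density by the robust mean of no-drug control wells. The result is capped at 1.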

B. subtilis 168 [5] = experiment: as above
How it was run: as §2

S. aureus Newman [6] = experiment: as above
How it was run: as §2
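Throughout, for Bliss interaction score (quartile over a dose matrix): first quartile when negative (synergy) and third quartile when positive (antagonism).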

CNC(C)C1CCC(N)C(OC2C(N)CC(N)C(OC3OCC(C)(O)C(NC)C3O)C2O)O1 (stereo unspecified) [Gentamicin] + Cc1ncc([N+](=O)[O-])n1CCO [Metronidazole]
main component drawn
Settings | Bliss interaction score
B. subtilis 168 [2] | -0.0531
S. aureus DSM 20231 | 0.0225
S. aureus Newman [3] | 0.0412
S. pneumoniae D39V [1] | 0.0587

fitness, main component drawn
Settings | partner 0.625 µg/mL | partner 0.781 µg/mL | partner 1.073 µg/mL | partner 1.25 µg/mL | partner 1.562 µg/mL | partner 2.145 µg/mL | partner 2.5 µg/mL | partner 3.124 µg/mL | partner 4.29 µg/mL | partner 5 µg/mL
B. subtilis 168 [5], first compound 0.0625 µg/mL | 0.897 | – | – | 0.926 | – | – | 0.922 | – | – | –
B. subtilis 168 [5], first compound 0.25 µg/mL | 0.0729 | – | – | – | – | – | 0.0383 | – | – | –
S. aureus Newman [6], first compound 0.5 µg/mL | 0.995 | 0.92 | – | 0.979 | 0.911 | – | ≥ 1 | 0.913 | – | –
S. aureus Newman [6], first compound 1 µg/mL | ≥ 1 | ≥ 1 | – | 0.974 | ≥ 1 | – | 0.986 | ≥ 1 | – | –
S. aureus Newman [6], first compound 2 µg/mL | ≥ 1 | ≥ 1 | – | 0.981 | ≥ 1 | – | ≥ 1 | ≥ 1 | – | –
S. pneumoniae D39V [4], first compound 2 µg/mL | – | – | 0.983 | 0.985 | – | 0.864 | ≥ 1 | – | 0.8 | 0.996
S. pneumoniae D39V [4], first compound 4 µg/mL | – | – | 0.976 | 0.992 | – | 0.987 | ≥ 1 | – | 0.827 | 0.986
S. pneumoniae D39V [4], first compound 8 µg/mL | – | – | 0.98 | 0.955 | – | 0.96 | 0.959 | – | 0.942 | 0.959

fitness, S. aureus Newman [6], one replicate, main component drawn
Settings | first compound 0.375 µg/mL | first compound 0.75 µg/mL | first compound 1.5 µg/mL
partner 0.625 µg/mL | 0.94 | 0.944 | 0.951
partner 1.25 µg/mL | ≥ 1 | ≥ 1 | ≥ 1
partner 2.5 µg/mL | ≥ 1 | ≥ 1 | ≥ 1

CNC(C)C1CCC(N)C(OC2C(N)CC(N)C(OC3OCC(C)(O)C(NC)C3O)C2O)O1 (stereo unspecified) [Gentamicin] + Cc1onc(-c2ccccc2)c1C(=O)N[C@@H]1C(=O)N2[C@@H]1SC(C)(C)[C@@H]2C(=O)O [Oxacillin]
main component drawn
Settings | Bliss interaction score
B. subtilis 168 [2] | -0.0859
S. aureus DSM 20231 | 0.0545
S. aureus Newman [3] | 0.0666
S. pneumoniae D39V [1] | 0.104

main component drawn
Settings | fitness
B. subtilis 168 [5], first compound 0.0625 µg/mL, partner 0.002 µg/mL | 0.899
B. subtilis 168 [5], first compound 0.0625 µg/mL, partner 0.004 µg/mL | 0.82
B. subtilis 168 [5], first compound 0.125 µg/mL, partner 0.002 µg/mL | 0.275
B. subtilis 168 [5], first compound 0.125 µg/mL, partner 0.004 µg/mL | 0.0851
B. subtilis 168 [5], first compound 0.125 µg/mL, partner 0.008 µg/mL | 0.0748
B. subtilis 168 [5], first compound 0.25 µg/mL, partner 0.002 µg/mL | 0.0462
B. subtilis 168 [5], first compound 0.25 µg/mL, partner 0.004 µg/mL | 0.0441
B. subtilis 168 [5], first compound 0.25 µg/mL, partner 0.008 µg/mL | 0.0454
S. aureus Newman [6], first compound 0.5 µg/mL, partner 0.0156 µg/mL | 0.82
S. aureus Newman [6], first compound 0.5 µg/mL, partner 0.0312 µg/mL | 0.782
S. aureus Newman [6], first compound 0.5 µg/mL, partner 0.0625 µg/mL | 0.672
S. aureus Newman [6], first compound 1 µg/mL, partner 0.0156 µg/mL | 0.851
S. aureus Newman [6], first compound 1 µg/mL, partner 0.0312 µg/mL | 0.776
S. aureus Newman [6], first compound 1 µg/mL, partner 0.0625 µg/mL | 0.765
S. aureus Newman [6], first compound 2 µg/mL, partner 0.0156 µg/mL | 0.901
S. aureus Newman [6], first compound 2 µg/mL, partner 0.0625 µg/mL | 0.666
S. pneumoniae D39V [4], first compound 2 µg/mL, partner 0.005 µg/mL | 0.985
S. pneumoniae D39V [4], first compound 2 µg/mL, partner 0.01 µg/mL | 0.995
S. pneumoniae D39V [4], first compound 2 µg/mL, partner 0.02 µg/mL | 0.953
S. pneumoniae D39V [4], first compound 2 µg/mL, partner 0.04 µg/mL | 0.55
S. pneumoniae D39V [4], first compound 4 µg/mL, partner 0.005 µg/mL | 0.999
S. pneumoniae D39V [4], first compound 4 µg/mL, partner 0.01 µg/mL | 0.982
S. pneumoniae D39V [4], first compound 4 µg/mL, partner 0.02 µg/mL | 0.947
S. pneumoniae D39V [4], first compound 4 µg/mL, partner 0.04 µg/mL | 0.549
S. pneumoniae D39V [4], first compound 8 µg/mL, partner 0.005 µg/mL | 0.963
S. pneumoniae D39V [4], first compound 8 µg/mL, partner 0.01 µg/mL | 0.985
S. pneumoniae D39V [4], first compound 8 µg/mL, partner 0.02 µg/mL | 0.939
S. pneumoniae D39V [4], first compound 8 µg/mL, partner 0.04 µg/mL | 0.553

fitness, one replicate, main component drawn
Settings | partner 0.0078 µg/mL | partner 0.0155 µg/mL | partner 0.0156 µg/mL | partner 0.031 µg/mL | partner 0.0312 µg/mL | partner 0.0625 µg/mL | partner 0.075 µg/mL | partner 0.15 µg/mL | partner 0.3 µg/mL
B. subtilis 168 [5], first compound 0.0625 µg/mL | ≥ 1 | 0.976 | – | 0.948 | – | – | 0.663 | 0.033 | 0.0409
B. subtilis 168 [5], first compound 0.125 µg/mL | 0.923 | 0.907 | – | 0.92 | – | – | 0.0517 | 0.0783 | 0.0465
B. subtilis 168 [5], first compound 0.25 µg/mL | 0.265 | 0.218 | – | 0.171 | – | – | 0.0546 | 0.0554 | 0.0541
S. aureus Newman [6], first compound 0.375 µg/mL | – | – | 0.785 | – | 0.736 | 0.648 | – | – | –
S. aureus Newman [6], first compound 0.75 µg/mL | – | – | 0.741 | – | 0.709 | 0.632 | – | – | –
S. aureus Newman [6], first compound 1.5 µg/mL | – | – | 0.581 | – | 0.106 | 0.113 | – | – | –

Cc1onc(-c2ccccc2)c1C(=O)N[C@@H]1C(=O)N2[C@@H]1SC(C)(C)[C@@H]2C(=O)O [Oxacillin] + CN(C)c1cc(NC(=O)CNC(C)(C)C)c(O)c2c1C[C@H]1C[C@H]3[C@H](N(C)C)C(O)=C(C(N)=O)C(=O)[C@@]3(O)C(O)=C1C2=O [Tigecycline]
Settings | Bliss interaction score
B. subtilis 168 [2] | 0.0355
S. aureus DSM 20231 | -0.0365
S. aureus Newman [3] | 0.0567
S. pneumoniae D39V [1] | 0.0953

Settings | fitness
B. subtilis 168 [5], first compound 0.002 µg/mL, partner 0.039 µg/mL | ≥ 1
B. subtilis 168 [5], first compound 0.002 µg/mL, partner 0.078 µg/mL | 0.976
B. subtilis 168 [5], first compound 0.002 µg/mL, partner 0.156 µg/mL | 0.992
B. subtilis 168 [5], first compound 0.004 µg/mL, partner 0.039 µg/mL | 0.963
B. subtilis 168 [5], first compound 0.004 µg/mL, partner 0.078 µg/mL | 0.943
B. subtilis 168 [5], first compound 0.004 µg/mL, partner 0.156 µg/mL | 0.95
B. subtilis 168 [5], first compound 0.008 µg/mL, partner 0.039 µg/mL | 0.998
B. subtilis 168 [5], first compound 0.008 µg/mL, partner 0.078 µg/mL | 0.945
B. subtilis 168 [5], first compound 0.008 µg/mL, partner 0.156 µg/mL | 0.962
S. aureus Newman [6], first compound 0.0156 µg/mL, partner 0.039 µg/mL | 0.794
S. aureus Newman [6], first compound 0.0156 µg/mL, partner 0.078 µg/mL | 0.798
S. aureus Newman [6], first compound 0.0156 µg/mL, partner 0.156 µg/mL | 0.778
S. aureus Newman [6], first compound 0.0312 µg/mL, partner 0.039 µg/mL | 0.751
S. aureus Newman [6], first compound 0.0312 µg/mL, partner 0.078 µg/mL | 0.762
S. aureus Newman [6], first compound 0.0312 µg/mL, partner 0.156 µg/mL | 0.745
S. aureus Newman [6], first compound 0.0625 µg/mL, partner 0.039 µg/mL | 0.641
S. aureus Newman [6], first compound 0.0625 µg/mL, partner 0.078 µg/mL | 0.663
S. aureus Newman [6], first compound 0.0625 µg/mL, partner 0.156 µg/mL | 0.688
S. pneumoniae D39V [4], first compound 0.01 µg/mL, partner 0.65 µg/mL | 0.928
S. pneumoniae D39V [4], first compound 0.01 µg/mL, partner 1.3 µg/mL | 0.951
S. pneumoniae D39V [4], first compound 0.01 µg/mL, partner 2.6 µg/mL | 0.957
S. pneumoniae D39V [4], first compound 0.02 µg/mL, partner 0.65 µg/mL | 0.904
S. pneumoniae D39V [4], first compound 0.02 µg/mL, partner 1.3 µg/mL | 0.891
S. pneumoniae D39V [4], first compound 0.02 µg/mL, partner 2.6 µg/mL | 0.875
S. pneumoniae D39V [4], first compound 0.04 µg/mL, partner 1.3 µg/mL | 0.463
S. pneumoniae D39V [4], first compound 0.04 µg/mL, partner 2.6 µg/mL | 0.531

fitness, B. subtilis 168 [5], one replicate
Settings | first compound 0.0078 µg/mL | first compound 0.0155 µg/mL | first compound 0.031 µg/mL | first compound 0.075 µg/mL | first compound 0.15 µg/mL | first compound 0.3 µg/mL
partner 0.039 µg/mL | – | – | – | 0.507 | 0.0264 | 0.0457
partner 0.078 µg/mL | – | – | – | 0.549 | 0.0459 | 0.0479
partner 0.125 µg/mL | ≥ 1 | 0.964 | 0.968 | – | – | –
partner 0.156 µg/mL | – | – | – | 0.607 | 0.049 | 0.0616
partner 0.25 µg/mL | 0.962 | ≥ 1 | 0.923 | – | – | –
partner 0.5 µg/mL | ≥ 1 | 0.976 | 0.857 | – | – | –
